Assay results as given in BindingDB's records for doi:10.1016/j.ejmech.2016.03.016 (Peking University, 2016).

Target: Neuronal acetylcholine receptor subunit alpha-7 (Homo sapiens, UniProt P36544)
Test: Agonist activity at human alpha7 nAChR expressed in xenopus oocytes preincubated for 10 mins followed by acetylcholine addition by patch clamp electrophysiological assay

Neuronal acetylcholine receptor subunit alpha-7, sequence (P36544 whole entry): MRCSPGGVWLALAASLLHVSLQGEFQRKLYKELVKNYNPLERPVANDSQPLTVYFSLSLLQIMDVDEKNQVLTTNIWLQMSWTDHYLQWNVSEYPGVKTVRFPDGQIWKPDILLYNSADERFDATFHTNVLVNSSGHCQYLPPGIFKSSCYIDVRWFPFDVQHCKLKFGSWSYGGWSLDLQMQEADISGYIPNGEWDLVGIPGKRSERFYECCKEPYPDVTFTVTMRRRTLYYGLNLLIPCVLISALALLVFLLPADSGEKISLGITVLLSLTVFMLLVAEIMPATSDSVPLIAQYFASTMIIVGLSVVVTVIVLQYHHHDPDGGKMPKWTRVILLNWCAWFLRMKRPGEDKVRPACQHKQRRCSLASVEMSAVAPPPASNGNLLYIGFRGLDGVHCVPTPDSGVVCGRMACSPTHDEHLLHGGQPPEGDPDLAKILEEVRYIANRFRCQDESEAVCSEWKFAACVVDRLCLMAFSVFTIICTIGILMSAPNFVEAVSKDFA

In the case of `O=C(N[C@H]1CN2CCC1CC2)c1cc2cccc(Br)n2c1`, the EC50 is reported as 1780 nM.
